# Active and inactive are the calls of the source. The rule behind the calls is not given here.
# Legend:
# [1] = AUC in CD-1 mouse brain at 2 mg/kg, iv measured up to 6 hrs; format: ADME, organism-based; set-up: route intravenous, dose 2 mg/kg, time <=6
# [2] = Mutagenecity in Salmonella typhimurium TA1537 in absence of S9 fraction at 5 to 100 uM by Ames test; format: toxicity; conditions: salmonella enterica subsp. enterica serovar typhimurium, s9, 100 µM; dose 5-100 µM
# [3] = AUC in CD-1 mouse plasma at 2 mg/kg, iv measured up to 8 hrs; format: ADME, organism-based; set-up: route intravenous, dose 2 mg/kg, time <=8
# [4] = AUC in CD-1 mouse plasma at 8 mg/kg, po measured up to 8 hrs; format: ADME, organism-based; set-up: route oral, dose 8 mg/kg, time <=8
# [5] = Mutagenecity in Salmonella typhimurium TA100 in presence of S9 fraction at 5 to 100 uM by Ames test; format: toxicity, subcellular; conditions: salmonella enterica subsp. enterica serovar typhimurium, s9, 100 µM; dose 5-100 µM
# [6] = target: Sodium-dependent noradrenaline transporter (Homo sapiens) (UniProt P23975); assay: Inhibition of NET (unknown origin) at 10 uM
# Chain of Sodium-dependent noradrenaline transporter (Homo sapiens) (P23975 whole entry): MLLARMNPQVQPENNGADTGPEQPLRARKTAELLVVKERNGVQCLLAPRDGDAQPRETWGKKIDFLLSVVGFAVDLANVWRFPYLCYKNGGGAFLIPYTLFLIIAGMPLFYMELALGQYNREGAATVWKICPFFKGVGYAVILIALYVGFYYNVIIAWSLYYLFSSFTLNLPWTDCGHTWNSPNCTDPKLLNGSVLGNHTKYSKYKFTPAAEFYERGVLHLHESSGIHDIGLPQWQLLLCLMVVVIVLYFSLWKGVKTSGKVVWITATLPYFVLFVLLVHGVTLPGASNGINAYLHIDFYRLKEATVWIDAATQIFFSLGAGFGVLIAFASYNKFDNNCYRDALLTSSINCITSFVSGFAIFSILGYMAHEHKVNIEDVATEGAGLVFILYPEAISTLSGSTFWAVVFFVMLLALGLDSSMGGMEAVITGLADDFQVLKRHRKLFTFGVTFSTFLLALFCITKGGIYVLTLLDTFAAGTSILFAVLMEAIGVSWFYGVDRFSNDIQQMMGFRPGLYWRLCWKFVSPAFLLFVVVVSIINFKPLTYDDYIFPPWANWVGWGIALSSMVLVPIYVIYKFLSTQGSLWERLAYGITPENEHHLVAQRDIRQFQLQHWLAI
# [7] = Ratio of drug concentration in brain to plasma in CD-1 mouse at 8 mg/kg, po; format: ADME, organism-based; conditions: read-out: BPR
# [8] = MRT in CD-1 mouse plasma at 2 mg/kg, iv measured up to 8 hrs; format: ADME, organism-based
# [9] = Mutagenecity in Salmonella typhimurium TA1535 in presence of S9 fraction at 5 to 100 uM by Ames test; format: toxicity, subcellular; conditions: salmonella enterica subsp. enterica serovar typhimurium, s9, 100 µM; dose 5-100 µM
# [10] = Mutagenecity in Salmonella typhimurium TA100 in absence of S9 fraction at 5 to 100 uM by Ames test; format: toxicity; conditions: salmonella enterica subsp. enterica serovar typhimurium, s9, 100 µM; dose 5-100 µM
# [11] = target: Cannabinoid receptor 1 (Rattus norvegicus) (UniProt P20272); assay: Displacement of [3H]-CP55940 from rat forebrain CB1 receptor at 10 uM
# Chain of Cannabinoid receptor 1 (Rattus norvegicus) (P20272 whole entry): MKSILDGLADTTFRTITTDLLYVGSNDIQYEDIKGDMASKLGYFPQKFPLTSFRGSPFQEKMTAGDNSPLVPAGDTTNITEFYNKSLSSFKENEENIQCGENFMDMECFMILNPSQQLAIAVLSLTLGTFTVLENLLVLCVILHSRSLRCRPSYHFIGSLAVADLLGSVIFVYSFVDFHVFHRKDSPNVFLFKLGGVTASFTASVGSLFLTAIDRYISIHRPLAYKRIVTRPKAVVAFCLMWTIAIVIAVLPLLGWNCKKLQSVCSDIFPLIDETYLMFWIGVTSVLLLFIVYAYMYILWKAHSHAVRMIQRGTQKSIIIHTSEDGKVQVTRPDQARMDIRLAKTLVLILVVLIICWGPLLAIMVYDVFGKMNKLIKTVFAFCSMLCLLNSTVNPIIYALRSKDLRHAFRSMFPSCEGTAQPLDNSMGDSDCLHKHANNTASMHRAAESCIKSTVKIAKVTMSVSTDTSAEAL
# [12] = target: T1, N-acylethanolamine-hydrolyzing acid amidase (Homo sapiens, UniProt Q02083); assay: Inhibition of human NAAA using N-(4-methyl coumarin)-palmitamide as fluorogenic substrate preincubated for 90 mins followed by substrate addition by fluorescence assay
# T1 sequence (Q02083 whole entry): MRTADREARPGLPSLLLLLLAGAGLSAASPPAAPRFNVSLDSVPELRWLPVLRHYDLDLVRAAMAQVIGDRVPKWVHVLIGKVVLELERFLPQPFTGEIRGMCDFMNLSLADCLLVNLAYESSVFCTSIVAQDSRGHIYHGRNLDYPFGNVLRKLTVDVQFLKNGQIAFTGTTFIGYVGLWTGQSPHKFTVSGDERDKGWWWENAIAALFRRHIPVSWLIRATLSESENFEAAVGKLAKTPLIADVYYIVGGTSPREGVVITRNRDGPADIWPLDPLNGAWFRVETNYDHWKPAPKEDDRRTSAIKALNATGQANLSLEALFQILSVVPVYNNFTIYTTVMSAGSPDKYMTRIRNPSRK
# [13] = target: Sodium-dependent dopamine transporter (Homo sapiens) (UniProt Q01959); assay: Inhibition of DAT (unknown origin) at 10 uM
# Chain of Sodium-dependent dopamine transporter (Homo sapiens) (Q01959 whole entry): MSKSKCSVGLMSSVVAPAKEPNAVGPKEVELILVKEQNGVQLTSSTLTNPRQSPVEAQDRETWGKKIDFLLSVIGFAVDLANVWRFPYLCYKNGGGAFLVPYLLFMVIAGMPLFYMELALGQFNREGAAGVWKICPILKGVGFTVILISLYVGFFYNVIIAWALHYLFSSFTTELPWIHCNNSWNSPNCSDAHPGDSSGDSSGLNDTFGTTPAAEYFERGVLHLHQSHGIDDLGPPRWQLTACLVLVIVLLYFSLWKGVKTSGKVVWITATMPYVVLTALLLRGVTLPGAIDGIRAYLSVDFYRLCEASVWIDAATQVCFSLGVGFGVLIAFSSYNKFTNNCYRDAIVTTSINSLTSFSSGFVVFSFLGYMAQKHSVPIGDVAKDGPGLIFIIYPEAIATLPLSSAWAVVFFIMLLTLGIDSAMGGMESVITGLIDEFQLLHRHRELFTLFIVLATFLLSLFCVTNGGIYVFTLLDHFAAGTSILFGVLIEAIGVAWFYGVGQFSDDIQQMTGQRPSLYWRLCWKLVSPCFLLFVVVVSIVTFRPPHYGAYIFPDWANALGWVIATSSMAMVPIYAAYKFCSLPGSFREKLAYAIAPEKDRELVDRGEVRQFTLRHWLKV
# [14] = target: T2, Cytochrome P450 1A2 (Homo sapiens, UniProt P05177); assay: Inhibition of CYP1A2 (unknown origin); format: ADME
# T2 sequence (P05177 whole entry): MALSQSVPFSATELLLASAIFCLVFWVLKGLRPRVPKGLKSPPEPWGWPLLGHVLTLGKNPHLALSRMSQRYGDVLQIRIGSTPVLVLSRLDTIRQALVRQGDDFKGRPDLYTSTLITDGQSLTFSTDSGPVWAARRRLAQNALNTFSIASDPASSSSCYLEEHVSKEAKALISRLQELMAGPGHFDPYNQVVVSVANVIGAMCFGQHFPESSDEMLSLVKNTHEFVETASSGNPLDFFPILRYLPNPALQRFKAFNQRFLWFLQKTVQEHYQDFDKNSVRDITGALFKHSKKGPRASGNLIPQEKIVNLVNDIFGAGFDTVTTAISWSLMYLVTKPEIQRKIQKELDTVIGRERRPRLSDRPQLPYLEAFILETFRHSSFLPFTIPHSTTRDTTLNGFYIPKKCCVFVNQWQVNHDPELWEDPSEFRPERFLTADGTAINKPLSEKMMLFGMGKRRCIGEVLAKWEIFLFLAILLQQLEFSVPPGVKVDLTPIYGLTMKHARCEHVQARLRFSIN
# [15] = Clearance in CD-1 mouse plasma at 8 mg/kg, po measured up to 8 hrs; format: ADME, organism-based
# [16] = target: Cannabinoid receptor 2 (Homo sapiens) (UniProt P34972); assay: Displacement of [3H]-CP55940 from human CB2 receptor expressed in HEK293 cell membrane at 10 uM; format: cell membranes
# Chain of Cannabinoid receptor 2 (Homo sapiens) (P34972 whole entry): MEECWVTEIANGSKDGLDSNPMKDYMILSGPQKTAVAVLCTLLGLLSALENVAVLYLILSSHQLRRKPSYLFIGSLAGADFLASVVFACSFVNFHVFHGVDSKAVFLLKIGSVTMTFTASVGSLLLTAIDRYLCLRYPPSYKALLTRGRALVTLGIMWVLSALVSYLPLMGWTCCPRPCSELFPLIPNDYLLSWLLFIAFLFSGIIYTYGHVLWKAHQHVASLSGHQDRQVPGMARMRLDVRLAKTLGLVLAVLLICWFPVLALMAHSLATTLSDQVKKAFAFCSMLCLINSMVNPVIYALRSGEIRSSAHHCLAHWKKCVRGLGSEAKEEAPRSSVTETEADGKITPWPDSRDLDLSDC
# [17] = target: Sodium-dependent serotonin transporter (Homo sapiens) (UniProt P31645); assay: Inhibition of SERT (unknown origin) at 10 uM
# Chain of Sodium-dependent serotonin transporter (Homo sapiens) (P31645 whole entry, looked up): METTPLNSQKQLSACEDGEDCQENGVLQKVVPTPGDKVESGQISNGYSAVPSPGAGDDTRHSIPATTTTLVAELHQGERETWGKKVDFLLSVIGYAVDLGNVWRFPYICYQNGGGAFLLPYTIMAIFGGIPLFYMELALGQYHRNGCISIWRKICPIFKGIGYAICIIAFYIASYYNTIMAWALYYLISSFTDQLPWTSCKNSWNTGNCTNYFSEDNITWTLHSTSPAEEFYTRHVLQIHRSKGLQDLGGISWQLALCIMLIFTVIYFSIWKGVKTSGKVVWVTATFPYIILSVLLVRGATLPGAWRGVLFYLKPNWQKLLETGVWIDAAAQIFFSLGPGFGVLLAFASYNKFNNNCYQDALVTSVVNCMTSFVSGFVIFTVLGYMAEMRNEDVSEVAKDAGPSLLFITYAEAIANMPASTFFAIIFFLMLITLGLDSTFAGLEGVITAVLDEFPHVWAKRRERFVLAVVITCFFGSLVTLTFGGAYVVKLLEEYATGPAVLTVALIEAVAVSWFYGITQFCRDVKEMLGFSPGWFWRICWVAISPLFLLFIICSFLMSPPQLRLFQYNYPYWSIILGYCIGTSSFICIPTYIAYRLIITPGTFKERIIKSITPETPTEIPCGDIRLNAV
# [18] = target: Cannabinoid receptor 2 (Mus musculus) (UniProt P47936); assay: Displacement of [3H]-CP55940 from mouse CB2 receptor expressed in HEK293 cell membrane at 10 uM; format: cell membranes
# Chain of Cannabinoid receptor 2 (Mus musculus) (P47936 whole entry): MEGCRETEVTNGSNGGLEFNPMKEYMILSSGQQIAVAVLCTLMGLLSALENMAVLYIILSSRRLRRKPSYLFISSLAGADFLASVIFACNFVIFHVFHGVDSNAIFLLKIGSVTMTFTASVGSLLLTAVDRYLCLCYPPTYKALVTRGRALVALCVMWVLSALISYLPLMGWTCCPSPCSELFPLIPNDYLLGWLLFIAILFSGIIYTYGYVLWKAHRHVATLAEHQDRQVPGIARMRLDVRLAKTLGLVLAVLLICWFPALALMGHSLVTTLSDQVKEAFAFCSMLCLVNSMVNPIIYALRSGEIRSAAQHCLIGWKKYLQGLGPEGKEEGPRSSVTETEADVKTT
# [19] = Half life in mouse liver microsomes at 1 uM in presence of NADPH by LC-MS/MS analysis; format: ADME, Microsome
# [20] = Drug concentration in brain of CD-1 mouse at 2 mg/kg, iv administered as single cassette dose measured after 15 mins; format: ADME, organism-based; conditions: read-out: Ct
# [21] = Mutagenecity in Salmonella typhimurium TA1535 in absence of S9 fraction at 5 to 100 uM by Ames test; format: toxicity; conditions: salmonella enterica subsp. enterica serovar typhimurium, s9, 100 µM; dose 5-100 µM
# [22] = target: Cytochrome P450 2D6 (Homo sapiens, UniProt P10635); assay: Inhibition of CYP2D6 (unknown origin) at 10 uM; format: ADME
# Chain of Cytochrome P450 2D6 (P10635 whole entry): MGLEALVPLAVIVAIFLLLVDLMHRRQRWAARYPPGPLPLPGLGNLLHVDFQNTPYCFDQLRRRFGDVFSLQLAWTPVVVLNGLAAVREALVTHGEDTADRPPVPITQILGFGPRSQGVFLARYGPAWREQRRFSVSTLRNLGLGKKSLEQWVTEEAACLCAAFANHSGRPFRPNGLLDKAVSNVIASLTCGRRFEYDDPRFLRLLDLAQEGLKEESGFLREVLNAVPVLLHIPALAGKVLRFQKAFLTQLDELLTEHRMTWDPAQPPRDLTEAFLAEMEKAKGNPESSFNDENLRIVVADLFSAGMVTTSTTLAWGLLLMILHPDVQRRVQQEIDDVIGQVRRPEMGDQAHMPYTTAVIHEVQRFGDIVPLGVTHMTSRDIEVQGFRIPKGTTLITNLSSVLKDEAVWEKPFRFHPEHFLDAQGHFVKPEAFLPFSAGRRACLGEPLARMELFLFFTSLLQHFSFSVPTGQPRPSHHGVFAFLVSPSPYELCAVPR
# [23] = Drug concentration in plasma of CD-1 mouse at 8 mg/kg, po administered as single cassette dose measured after 60 mins; format: ADME, organism-based
# [24] = Drug concentration in plasma of CD-1 mouse at 2 mg/kg, iv administered as single cassette dose measured after 15 mins; format: ADME, organism-based
# [25] = Half life in rat liver microsomes at 1 uM in presence of NADPH by LC-MS/MS analysis; format: ADME, Microsome
# [26] = Drug concentration in plasma of CD-1 mouse at 8 mg/kg, po administered as single cassette dose measured after 30 mins; format: ADME, organism-based
# [27] = Oral bioavailability in CD-1 mouse plasma at 8 mg/kg measured up to 8 hrs; format: ADME, organism-based
# [28] = AUC in CD-1 mouse brain at 8 mg/kg, po measured up to 6 hrs; format: ADME, organism-based; set-up: route oral, dose 8 mg/kg, time <=6
# [29] = Half life in human liver microsomes at 1 uM in presence of NADPH by LC-MS/MS analysis; format: ADME, Microsome
# [30] = Half life in CD-1 mouse plasma at 8 mg/kg, po measured up to 8 hrs; format: ADME, organism-based
# [31] = Mutagenecity in Salmonella typhimurium TA98 in presence of S9 fraction at 5 to 100 uM by Ames test; format: toxicity, subcellular; conditions: salmonella enterica subsp. enterica serovar typhimurium, s9, 100 µM; dose 5-100 µM
# [32] = Mutagenecity in Salmonella typhimurium TA98 in absence of S9 fraction at 5 to 100 uM by Ames test; format: toxicity; conditions: salmonella enterica subsp. enterica serovar typhimurium, s9, 100 µM; dose 5-100 µM
# [33] = Ratio of drug concentration in brain to plasma in CD-1 mouse at 2 mg/kg, iv; format: ADME, organism-based; conditions: read-out: BPR
smiles,measurement,setting,value
COc1ccc(-c2ccc(CO[C@H]3C[C@@H](N=C=S)C3)nc2)cc1F,AUC at 6 h,[1],0.298 µg·h/mL
same,Activity,[2],Non-Toxic
same,AUC at 8 h,[3],0.0785 µg·h/mL
same,AUC at 8 h,[4],0.0413 µg·h/mL
same,Activity,[5],Non-Toxic
same,inhibition,[6],inactive
same,Kp,[7],0.25
same,MRT,[8],20.3 min
same,Activity,[9],Non-Toxic
same,Activity,[10],Non-Toxic
same,inhibition,[11],inactive
same,IC50,[12],0.02 µM
same,inhibition,[13],inactive
same,IC50,[14],1.8 µM
same,CL/F,[15],166 L/h/kg
same,inhibition,[16],inactive
same,inhibition,[17],inactive
same,inhibition,[18],inactive
same,half-life at 1 µM,[19],28.2 min
same,concentration at 0.25 h,[20],873 ng/g
same,Activity,[21],Non-Toxic
same,inhibition (INH),[22],Not Active
same,concentration at 1 h,[23],0.054 µg/mL
same,concentration at 0.25 h,[24],0.189 µg/mL
same,half-life at 1 µM,[25],19.2 min
same,concentration at 0.5 h,[26],0.016 µg/mL
same,bioavailability,[27],13%
same,AUC at 6 h,[28],0.0103 µg·h/mL
same,half-life at 1 µM,[29],16.7 min
same,half-life,[30],31.5 min
same,Activity,[31],Non-Toxic
same,Activity,[32],Non-Toxic
same,Kp,[33],3.8

# — ChEMBL document CHEMBL4834430, “Design and Structure-Activity Relationships of Isothiocyanates as Potent and Selective N-Acylethanolamine-Hydrolyzing Acid Amidase Inhibitors” (J Med Chem, 2021)
